Assay results from US11339144B2 (Navitor Pharmaceuticals, Inc., priority 2017, dated 2022).

Tests used:
[1] = biological target: HA-GST-Rheb (GTP-γ-S loaded) activating mTORC1 (Homo sapiens (Human), UniProt Q15382); experiment: Rheb-dependent in vitro kinase assay (Rheb-IVK; LanthaScreen or Western readout); assay type: biochemical; settings: Rheb-dependent in vitro kinase assay; read-out: IVK IC50
Rheb = Rheb (Homo sapiens (Human), UniProt Q15382); experiment: Affinity Selection Mass Spectrometry (ASMS); assay type: binding; settings: affinity (R3/R0) in Affinity Selection Mass Spectrometry assay
Experimental: Method 2 (Affinity Selection Mass Spectrometry
Protein: Rheb (19 KDa) in the following buffer: 20 mM Tris, pH 8.0, 200 mM NaCl, 2 mM DTT, 5 mM MgCl2 was prepared as under.
Human Rheb protein (I-169) was purified from BL21 (DE3) E. coli using a His-Smt-Rheb expression vector. The cell paste was lysed in lysis buffer (50 mM HEPES pH 7.5, 0.5 M NaCl, 5% Glycerol, 1% CHAPS, EDTA free protease inhibitor tablets, lysozyme to 1 mg/mL, benzonase 250U), sonicated, and purified on a HiTrap Ni Chelating Column (GE Healthcare) using the following buffer: 50 mM HEPES pH 7.5, 0.5 M NaCl, 5% Glycerol, and imidazole increasing in concentration from 5 mM to 500 mM. The His-Smt tag was cleaved using a U1p1 enzyme and dialyzed into 50 mM HEPES pH 7.5, 0.5 M NaCl, 5% Glycerol. The resultant protein was again purified on a Ni Chelating column to remove the U1p1 enzyme and His-Smt tag and then purified by size exclusion chromatography on a Sephacryl S-100 26/60 column into the following final buffer: 20 mM NaPhos pH 7.0, 100 mM NaCl, 5 mM MgCl2, 2 mM TCEP.
Concentrations: 60 μM Rheb, 180 μM GDP and 2 μM of each compound,
Ultrafiltration Filter (Sartorius, Germany) MW cutoff: 10 KDa
• (a) Sample preparation: Prepare sample for each group in 1.5 mL microcentrifuge tube according to the experimental design, total volume 550 μL. In a standard ASMS experiment there are two groups: Protein plus (P+L+) and protein minus (P−L+). • (b) Transfer 50 μL from the 550 μL to a vial as R0 sample. Incubate the rest solution for 30 min at room temperature. Then transfer the 500 μL into an ultrafiltration filter tube and centrifuge at 12×10^3 rpm for ˜10 min, leave about 50 μL solution (otherwise adjust this time). • (c) Add incubation buffer to the ultrafiltration filter tube to about 500 μL. Stir gently and centrifuge mixtures as above, leave about 50 μL solution. • (d) Repeat the step c. Transfer the remaining 50 μL upper layer solution to a new vial as R^3 sample. Sample Extraction: Add 150 μL MeCN to denature the protein completely. Centrifuge at 12×10^3 rpm for 5 min. Transfer the supernatant into LC-MS auto sampler vials for LC-MS analysis (5 uL injection).
Waters Acquity UPLC system, Waters ACQUITY UPLC BEH C18 column (2.1×50 mm, 1.7 μM); Mobile phase A: 0.1% formic acid solution, B: MeCN; 0.3 mL/min, 5 μL injection, gradient elution (Table 5).
Waters Synapt G1 Q-TOF system, positive or negative ion scan modes; Capillary voltage: 3.0 kV; Method: MSE; Mass range: m/z=100-1000; Source temperature: 120° C.; Desolvation temperature: 400° C.; Collision voltage: 35 V; Sampling Cone: 35 V; Extraction Cone: 4.0 V; Cone Gas: 50 L/h; Desolvation Gas: 800 L/h.

Chain of Rheb (Q15382 1-169 limits assumed): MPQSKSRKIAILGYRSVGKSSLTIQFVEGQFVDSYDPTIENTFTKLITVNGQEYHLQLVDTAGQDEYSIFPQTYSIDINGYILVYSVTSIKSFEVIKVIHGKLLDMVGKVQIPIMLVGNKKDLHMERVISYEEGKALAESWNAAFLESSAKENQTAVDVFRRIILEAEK
Chain of HA-GST-Rheb (GTP-γ-S loaded) activating mTORC1 (Q15382 1-181): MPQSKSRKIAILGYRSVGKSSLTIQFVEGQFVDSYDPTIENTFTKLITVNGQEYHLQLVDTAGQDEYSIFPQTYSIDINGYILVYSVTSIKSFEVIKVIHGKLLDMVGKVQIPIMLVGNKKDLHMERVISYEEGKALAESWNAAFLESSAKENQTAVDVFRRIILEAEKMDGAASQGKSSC

SMILES	IC50 [1]	ASMS (R3/R0) (Rheb)
CN1CC(NC(=O)c2cc3c(Sc4ccc(Cl)cc4Cl)cc(Cl)c(Cl)c3[nH]2)C1 [I-21]	> 100 µM	C (an affinity (R3/R0)<20%)
CN(C)C(=O)c1ccc(Cn2c(C(=O)O)cc3c(Br)cc(Sc4ccc(C(F)(F)F)cc4)cc32)cc1 [I-22]	> 100 µM	B (an affinity (R3/R0) between 100% and 20%)
CN1CCC(CNC(=O)c2cc3c(Br)cc(Sc4ccc5ccccc5c4)cc3n2Cc2ccc(C(=O)N(C)C)cc2)CC1 [I-23]	> 100 µM	B (an affinity (R3/R0) between 100% and 20%)
CN1CC(NC(=O)c2cc3c(-c4cc(Cl)cc(Cl)c4)cc(Cl)cc3[nH]2)C1 [I-26]	> 100 µM	B (an affinity (R3/R0) between 100% and 20%)
CN1CCC(CCNC(=O)c2cc3c(Sc4ccc(Cl)cc4Cl)cc(Cl)c(Cl)c3[nH]2)CC1 [I-27]	> 100 µM	B (an affinity (R3/R0) between 100% and 20%)
CN1CCC(CCNC(=O)c2cc3c(-c4cc(Cl)cc(Cl)c4)cc(Cl)cc3[nH]2)CC1 [I-31]	> 100 µM	A (an affinity (R3/R0)>100%)
COCc1cc2c(Br)cc(Sc3ccc(Cl)c(Cl)c3)cc2n1Cc1ccc(C(=O)N(C)C)cc1 [I-34]	> 100 µM	B (an affinity (R3/R0) between 100% and 20%)
O=C(O)c1ccc(CCn2c(C(=O)O)cc3c(Br)cc(Oc4ccccc4)cc32)cc1 [I-36]	> 100 µM	C (an affinity (R3/R0)<20%)
CN(C)C(=O)c1ccc(Cn2c(CN)cc3c(Br)cc(Sc4ccc(Cl)c(Cl)c4)cc32)cc1 [I-37]	> 100 µM	C (an affinity (R3/R0)<20%)
CNCc1cc2c(Br)cc(Sc3ccc(Cl)c(Cl)c3)cc2n1Cc1ccc(C(=O)N(C)C)cc1 [I-38]	> 100 µM	A (an affinity (R3/R0)>100%)
CN(C)Cc1cc2c(Br)cc(Sc3ccc(Cl)c(Cl)c3)cc2n1Cc1ccc(C(=O)N(C)C)cc1 [I-39]	> 100 µM	B (an affinity (R3/R0) between 100% and 20%)
O=C(O)c1cc2c(Oc3cccc4cnccc34)cc(Cl)cc2[nH]1 [I-41, 6-chloro-4-(isoquinolin-5-yloxy)-1H-indole-2-carboxylic acid]	100 to 300 µM	C (an affinity (R3/R0)<20%)
O=C(O)c1cc2c(Br)cc(Sc3ccc(Cl)c(Cl)c3)cc2n1Cc1ccc(C(=O)N2CCNCC2)cc1 [I-43]	> 100 µM	A (an affinity (R3/R0)>100%)
CC(C)(C)OC(=O)N1CCN(C(=O)c2ccc(Cn3c(C(=O)O)cc4c(Br)cc(Sc5ccc(Cl)c(Cl)c5)cc43)cc2)CC1 [I-44]	> 100 µM	B (an affinity (R3/R0) between 100% and 20%)
CN1CCC(N(C)C(=O)c2ccc(Cn3c(C(=O)O)cc4c(Br)cc(Oc5ccccc5)cc43)cc2)C1 (centres unmarked) [I-46]	> 3 µM	C (an affinity (R3/R0)<20%)
CN1CCN(C(=O)c2ccc(Cn3c(C(=O)O)cc4c(Br)cc(Sc5ccc(Cl)c(Cl)c5)cc43)cc2)CC1 [I-52, 4-bromo-6-(3,4-dichlorophenylthio)-1-(4-(4-methylpiperazine-1-carbonyl)benzyl)-1H-indole-2-carboxylic acid]	10 to 100 µM	B (an affinity (R3/R0) between 100% and 20%)

Now from value to molecule, other results behind:

IC50 [1]	SMILES	ASMS (R3/R0) (Rheb)
< 10 µM	CN(C)C(=O)c1ccc(Cn2c(C(=O)O)cc3c(Sc4cccc(OC(F)(F)F)c4)cc(Sc4cccc(OC(F)(F)F)c4)cc32)cc1 [I-19, 1-(4-(dimethylcarbamoyl)benzyl)-4,6-bis(3-(trifluoromethoxy)phenylthio)-1H-indole-2-carboxylic acid]	B (an affinity (R3/R0) between 100% and 20%)
< 10 µM	CN(C)C(=O)c1ccc(Cn2c(C(=O)O)cc3c(Br)cc(Sc4cccc(OC(F)(F)F)c4)cc32)cc1 [I-20, 4-bromo-1-(4-(dimethylcarbamoyl)benzyl)-6-(3-(trifluoromethoxy)phenylthio)-1H-indole-2-carboxylic acid]	A (an affinity (R3/R0)>100%)
< 10 µM	CN(C)C(=O)c1ccc(Cn2c(C(=O)O)cc3c(Br)cc(SCC4CCCCC4)cc32)cc1 [I-24, 4-bromo-6-(cyclohexylmethylthio)-1-(4-(dimethylcarbamoyl)benzyl)-1H-indole-2-carboxylic acid]	B (an affinity (R3/R0) between 100% and 20%)
< 10 µM	CN(C)C(=O)c1ccc(Cn2c(C(=O)O)cc3c(Br)cc(SCCc4ccc(Cl)c(Cl)c4)cc32)cc1 [I-25, 4-bromo-6-(3,4-dichlorophenethylthio)-1-(4-(dimethylcarbamoyl)benzyl)-1H-indole-2-carboxylic acid]	B (an affinity (R3/R0) between 100% and 20%)
< 10 µM	CN(C)C(=O)c1ccc(Cn2c(C(=O)O)cc3c(Br)cc(Sc4ccc5ccccc5c4)cc32)cc1 [I-28, 4-bromo-1-(4-(dimethylcarbamoyl)benzyl)-6-(naphthalen-2-ylthio)-1H-indole-2-carboxylic acid]	B (an affinity (R3/R0) between 100% and 20%)
< 10 µM	CN1CCCN(c2ccc(NC(=O)c3cc4c(Sc5ccc(Cl)cc5Cl)cc(Cl)c(Cl)c4[nH]3)cc2F)CC1 [I-32, 6,7-dichloro-4-(2,4-dichlorophenyl)sulfanyl-N-[3-fluoro-4-(4-methyl-1,4-diazepan-1-yl)phenyl]-1H-indole-2-carboxamide]	A (an affinity (R3/R0)>100%)
< 10 µM	CN1CCN(c2cccc(NC(=O)c3cc4c(Sc5ccc(Cl)cc5Cl)cc(Cl)c(Cl)c4[nH]3)c2)CC1 [I-33, 6,7-dichloro-4-(2,4-dichlorophenylthio)-N-(3-(4-methylpiperazin-1-yl)phenyl)-1H-indole-2-carboxamide]	A (an affinity (R3/R0)>100%)
< 10 µM	CN1CCC(CNC(=O)c2cc3c(Sc4ccc(Cl)cc4Cl)cc(Cl)c(Cl)c3[nH]2)CC1 [I-35, 6,7-dichloro-4-(2,4-dichlorophenylthio)-N-((1-methylpiperidin-4-yl)methyl)-1H-indole-2-carboxamide]	A (an affinity (R3/R0)>100%)
10 to 100 µM	CN(C)C(=O)c1cccc(Cn2c(C(=O)O)cc3c(Br)cc(Oc4ccccc4)cc32)c1 [I-40, 4-bromo-1-(3-(dimethylcarbamoyl)benzyl)-6-phenoxy-1H-indole-2-carboxylic acid]	C (an affinity (R3/R0)<20%)
< 10 µM	O=C(O)c1ccc(Cn2c(C(=O)O)cc3c(Br)cc(Sc4ccc(Cl)c(Cl)c4)cc32)cc1 [I-42, 4-bromo-1-(4-carboxybenzyl)-6-(3,4-dichlorophenylthio)-1H-indole-2-carboxylic acid]	B (an affinity (R3/R0) between 100% and 20%)
< 10 µM	O=C(O)c1cc2c(Sc3ccc(Cl)cc3Cl)cc(Cl)c(Cl)c2[nH]1 [I-45, 6,7-dichloro-4-(2,4-dichlorophenylthio)-1H-indole-2-carboxylic acid]	A (an affinity (R3/R0)>100%)
10 to 100 µM	O=C(O)c1cc2c(Cl)cc(-c3cc(Cl)cc(Cl)c3)cc2[nH]1 [I-47, 4-chloro-6-(3,5-dichlorophenyl)-1H-indole-2-carboxylic acid]	B (an affinity (R3/R0) between 100% and 20%)
10 to 100 µM	O=C(O)c1cc2c(Cl)cc(-c3ccccc3)cc2[nH]1 [I-48, 4-chloro-6-phenyl-1H-indole-2-carboxylic acid]	C (an affinity (R3/R0)<20%)
< 10 µM	O=C(O)c1cc2c(-c3cc(Cl)cc(Cl)c3)cc(Cl)cc2[nH]1 [I-49, 6-chloro-4-(3,5-dichlorophenyl)-1H-indole-2-carboxylic acid]	B (an affinity (R3/R0) between 100% and 20%)
< 10 µM	O=C(O)c1cc2c(Br)cc(Sc3ccc(Cl)c(Cl)c3)cc2n1Cc1ccc(C(=O)N(CCO)CCO)cc1 [I-50, 1-(4-(bis(2-hydroxyethyl)carbamoyl)benzyl)-4-bromo-6-(3,4-dichlorophenylthio)-1H-indole-2-carboxylic acid]	B (an affinity (R3/R0) between 100% and 20%)
